Test results from patent US5500444A, “Cardioprotective tocopherol analogs” (Hoechst Marion Roussel, Inc., priority 1994, dated 1996).
Several values for one entry are separate records, joined by “and”; a condition that tells them apart may be missing. Equal entries are not always repeated. Where two headings read alike, the source gives them in different places. Blank lines part the entries; values can stand above or below the compound they belong to.

Key:
[1] = autoxidation of 1-epinephrine (superoxide radical reduction, Misra and Fridovich); assay type: biochemical; conditions: 1-epinephrine 1×10^-4 M, EDTA 1×10^-4 M, 30° C.; read-out: 50% inhibition of the autoxidation rate (ID50)
Procedure: 2-(3,4-dihydro-6-hydroxy-2,5,7,8-tetramethyl-2H-1-benzopyran-2-yl)ethyl-N,N,N-trimethylammonium bromide, described in Example 1, was evaluated for its ability to reduce superoxide radicals in an assay described by H. P. Misra and J. Fridovich, 1972, J. Biol. Chem. 247, 3170-5. In this assay, the rate of autoxidation of 1-epinephrine (1×10^-4 M) in the presence of EDTA (1×10^-4 M) at 30° C. is followed spectrophotometrically following the increase of absorbance at 480 mn.
Misra and Fridovich report that bovine superoxide dismutase gave 50% inhibition at 46mg per ml.

[2] = superoxide radicals generated by xanthine oxidase/xanthine, detected by reduction of nitro blue tetrazolium; assay type: biochemical; conditions: for superoxide radicals scavenged: at 200 μM; for IC50: read-out: IC50 (superoxide radical scavenging)
Procedure: In another evaluation, superoxide radicals were generated by 4 mU of xanthine oxidase in the presence of 0.1 mM xanthine and detected by reduction of 40 μM nitro blue tetrazolium to the diformazan dye in a spectrophotometric assay as described by C. Beauchamp and I. Fridovich, (1971) Analyt. Biochem. 44, 276-287. 30 U of superoxide dismutase inhibited this reduction by 90% which, therefore, was due to superoxide radicals. […] Trolox is a commercial antioxidant and is a known potent superoxide radical scavenger. For comparison, D,L-penicillamine and N-2-mercaptopropionyl glycine at 200 μM scavenged only 14% of the superoxide radicals. Neither of the scavengers inhibited xanthine oxidase, when tested at 200 μM.

[3] = test system: rats subjected to myocardial ischemia and reperfusion; conditions: Lukovic et al., 1992; cited from earlier work
[4] = oral absorption and excretion; assay type: in vivo
human α1 Pi = assay: Protection of α1 Pi from leukocyte-mediated inactivation (residual elastase inhibitory capacity); assay type: cell-based; conditions: for Relative PC50: concentration to protect 50% of elastase inhibitory capacity of α1 Pi, mean ± S.D. (n = 3) for Compound A; for inactivation of α1 Pi: zymosan-stimulated human leukocytes
Description: Stimulated human leukocytes release radicals and other oxygen metabolites, which, during inflammation, act as microbicidal agents. At the same time, they release proteolytic enzymes, such as elastase, which are also microbicidal but potentially threaten the connective tissue of the host. An endogenous α1 -proteinase inhibitor (α1 Pi) normally protects the host tissue from proteolytic digestion. α1 Pi is, however, inactivated by the leukocyte-derived oxidants. The inactivation of α1 Pi is antagonized by the disclosed radical scavengers 2-(3,4-dihydro-6-hydroxy-2,5,7,8-tetramethyl-2H-1-benzopyran-2-yl)-N,N,N-trimethylethanammonium, 4-methylbenzylsulfonate (Compound A) and 3,4-dihydro-2-(2-dimethylaminoethyl)-2,5,7,8-tetramethyl-2H-1-benzopyran-6-ol (Compound B). The concentration needed to protect 50% of the elastase inhibitory capacity of α1 Pi (PC50) depends on the amount of stimulated leukocytes present.
The procedure described by Skosey and Chow was followed (see Skosey, J. L. and Chow, D. C. (1985) In Handbook of Methods for Oxygen Radical Research (Greenwald, R. A., ed.) pp. 413-416, CRC Press, Boca Raton). In short, human α1 Pi was incubated with zymosan-stimulated human peripheral-blood leukocytes in the absence or presence of the scavengers. The amount of α1 Pi protected from oxidative inactivation was determined by its residual elastase inhibitory capacity.

β2 -receptors = conditions: infarcted reperfused heart, rats; Lukovic et al., 1992; cited from earlier work
[5] = test system: ligation-induced infarcted and reperfused rats; assay: Cardioprotective effects in ligation-induced infarcted and reperfused rats; assay type: in vivo; conditions: treated group, 10 mg/kg/h i.v., individual rats No. 1-10
Procedure: 2-(3,4-Dihydro-2,5,7,8-tetramethyl-6-methylcarbonyloxy-2H-1-benzopyran-2-yl)ethyl-N,N,N-trimethylammonium bromide was evaluated in ligation-induced infarcted and reperfused rats as follows. One of two groups of rats was infused intravenously with a solution of test compound in saline at a rate of 2.3 ml/h (10 mg/kg/h). The control group was infused with saline at the same rate. After 10 min of drug infusion, coronary arteries were ligated surgically for 60 min, ligation was loosened to allow reperfusion for 30 min. The ligation was retied and a dye (Evans Blue) was injected. The animals were sacrificed and the heart ventricles were removed and weighed. The unstained tissue was dissected and weighed; this represents the "area at risk", i.e. the area that was deprived of blood supply by ligation. To determine the infarcted area, the tissue was incubated with 2,3,5-triphenyltetrazolium chloride. Infarcted tissue became light colored and could be dissected and weighed. Thus, for each rat that survived the ligation a measurement of "area at risk" and of "infarcted area" was obtained and the ratio was calculated as given in Tables II and III.

[6] = Affinity for cardiac tissue (radioactivity in heart and blood after intravenous 14C-labelled compound); assay type: in vivo, rats; conditions: rat, 0.91 mg base/kg i.v.
Procedure: Following the procedure described in Example 9, but using ^14 C-methyl p-toluenesulfonate in place of "cold material", ^14 C-labelled 2-(3,4-dihydro-2,5,7,8-tetramethyl-6-methylcarbonyloxy-2H-1-benzopyranan-2-yl)ethyl-N,N,N-tri-^14 C-methylammonium p-toluenesulfonate was synthesized. The preparation was diluted with "cold material" to 11.74 μCi/mg base.
24 rats were given 0.91 mg base/kg by intravenous route (by canula into the jugular vein). The animals were sacrificed in groups of 3 at the time periods indicated in Table I. Immediately before sacrifice a 0.5 ml blood sample was taken from an indwelling catheter in the carotid artery. The hearts were removed, blotted and weighed. The samples of tissue and blood were solubiized with Luma Solve (a quaternary ammonium hydroxide preparation) and radioactivity was determined in a scintillation counter.

[7] = test system: canine myocardial reperfusion injury; conditions: Lucchesi and coworkers; cited from earlier work
hyperlipidemic rabbits = conditions: Carew et al., 1987; cited from earlier work
[8] = 4 mU xanthine oxidase, 0.1 mM xanthine, 40 μM nitro blue tetrazolium

Compound: CC(C)(S)C(N)C(=O)O (racemic) [D,L-penicillamine, reference compound]
- IC50 [1]: 73 µM
- superoxide radicals scavenged [2]: 14%

Compound: Cc1c(C)c2c(c(C)c1O)CCC(C)(CC[N+](C)(C)C)O2 (racemic) [Example 1, 2-(3,4-Dihydro-6-hydroxy-2,5,7,8-tetramethyl-2H-1-benzopyran-2-yl)ethyl-N,N,N-trimethylammonium bromide]
- IC50 [1]: 138 ± 14 µM

- oral absorption [4]: not or ally absorbed
- recovery in the feces [4]: found unchanged in the feces
- oral absorption ([4]; listed as Example 11): not orally absorbed
- inactivation of α1 Pi (human α1 Pi): antagonized
- IC50 [2, 8]: 28 µM
Compound: Cc1c(C)c2c(c(C)c1O)CCC(C)(CC[N+](C)(C)C)O2 (centres unmarked) [Compound A, 3,4-Dihydro-6-hydroxy-N,,N,N,2,5,7,8-heptamethyl-2H-1-benzopyran-2-ethanaminium 4-methylbenzenesulfonate]
- cardiac output [3]: enhanced
- contractility [3]: enhanced
- Relative PC50 (human α1 Pi): 4.5 ± 1 μM/μg leukocyte protein
- density of β2 -receptors (β2 -receptors): further increased the density of β2 -receptors

- inactivation of α1 Pi (human α1 Pi): antagonized
- IC50 [2, 8]: 28 µM
Compound: Cc1c(C)c2c(c(C)c1O)CCC(C)(CCN(C)C)O2 (centres unmarked) [Compound B, 3,4-dihydro-2-(2-dimethylaminoethyl)-2,5,7,8-tetramethyl-2H-1-benzopyran-6-ol]
- Relative PC50 (human α1 Pi): 7.3 μM/μg leukocyte protein

Compound: CC(=O)Oc1c(C)c(C)c2c(c1C)CCC(C)(CC[N+](C)(C)C)O2.[Br-] (centres unmarked) [Example 2, 2-(3,4-Dihydro-2,5,7,8-tetramethyl-6-methylcarbonyloxy-2H-1-benzopyran-2-yl)ethyl-N,N,N-trimethylammonium bromide]
- Tissue at risk [5]: 307 mg and 255 mg and 176 mg and 381 mg and 310 mg and 207 mg and 395 mg and 229 mg and 50 mg and 285 mg

- affinity for heart tissue [6]: marked affinity for heart tissue
- Ratio heart/blood ([6]; 5 min): 3.05 ± 1.46
- µg equiv/g ([6]; 5 min): 1.59 ± 0.22 µg equiv/g
- µg equiv/mL ([6]; 5 min): 0.434 ± 0.351 µg equiv/mL
- Ratio heart/blood ([6]; 15 min): 6.90 ± 8.34
- µg equiv/g ([6]; 15 min): 1.73 ± 0.422 µg equiv/g
- µg equiv/mL ([6]; 15 min): 0.59 ± 0.295 µg equiv/mL
- Ratio heart/blood ([6]; 30 min): 17.33 ± 5.42
- µg equiv/g ([6]; 30 min): 1.91 ± 0.278 µg equiv/g
- µg equiv/mL ([6]; 30 min): 0.124 ± 0.032 µg equiv/mL
- Ratio heart/blood ([6]; 1 hour): 20.09 ± 2.54
- µg equiv/g ([6]; 1 hour): 2.09 ± 0.406 µg equiv/g
- µg equiv/mL ([6]; 1 hour): 0.096 ± 0.008 µg equiv/mL
- Ratio heart/blood ([6]; 2 hours): 21.90 ± 3.56
- µg equiv/g ([6]; 2 hours): 1.4 ± 0.042 µg equiv/g
- µg equiv/mL ([6]; 2 hours): 0.086 ± 0.041 µg equiv/mL
- µg equiv/g ([6]; 4 hours): 1.25 ± 0.248 µg equiv/g
- µg equiv/mL ([6]; 4 hours): 0.054 ± 0.013 µg equiv/mL
- Ratio heart/blood ([6]; 4 hours (maximum), p-toluenesulfonate, 0.91 mg/kg, 240 min): 27.15 ± 4.30 and 27.15
- Ratio heart/blood ([6]; 6 hours): 18.62 ± 2.77
- µg equiv/g ([6]; 6 hours): 0.863 ± 0.067 µg equiv/g
- µg equiv/mL ([6]; 6 hours): 0.048 ± 0.007 µg equiv/mL
- Ratio heart/blood ([6]; 8 hours): 15.12 ± 2.69
- µg equiv/g ([6]; 8 hours): 0.652 ± 0.116 µg equiv/g
- µg equiv/mL ([6]; 8 hours): 0.048 ± 0.012 µg equiv/mL
- concentration of drug in heart tissue ([6]; after 8 h): 0.65 μg equiv/g
Compound: CC(=O)Oc1c(C)c(C)c2c(c1C)CCC(C)(CC[N+](C)(C)C)O2.Cc1ccc(S(=O)(=O)[O-])cc1 (centres unmarked) [Example 9, 2-(3,4-Dihydro-2,5,7,8-tetramethyl-6-methylcarbonyloxy-2H-1-benzopyran-2-yl)ethyl-N,N,N-trimethylammonium p-toluenesulfonate]

Compound: CC(S)C(=O)NCC(=O)O (centres unmarked) [N-2-mercaptopropionyl glycine, reference compound]
- canine myocardial reperfusion injury [7]: reduce canine myocardial reperfusion injury
- superoxide radicals scavenged [2]: 14%

- protection of α1 Pi (Relative PC50 column) (human α1 Pi; at 1 mM): Inactive at 1 mM
- IC50 [2, 8]: 28 µM
Compound: Cc1c(C)c2c(c(C)c1O)CCC(C)(C(=O)O)O2 (centres unmarked) [Trolox, 3,4dihydro-6-hydroxy-2,5,7,8-tetramethyl-2H-1-benzopyrane-2-carboxylic acid, reference compound]
- IC50 [1]: 105 ± 8 µM

Compound: CC(C)(Sc1cc(C(C)(C)C)c(O)c(C(C)(C)C)c1)Sc1cc(C(C)(C)C)c(O)c(C(C)(C)C)c1 [probucol]
- anti-atherosclerotic effect (hyperlipidemic rabbits): marked anti-atherosclerotic effect

- inhibition of nitro blue tetrazolium reduction ([2]; 30 U superoxide dismutase, 4 mU xanthine oxidase, 0.1 mM xanthine, 40 μM nitro blue tetrazolium): 90%
Compound: superoxide dismutase
- canine myocardial reperfusion injury [7]: reduce canine myocardial reperfusion injury
